Experimental data: patent publication US20100249413A1, “STABILIZED PHARMACEUTICAL COMPOSITION” (priority 2006, published 2010)

Tests used:
[1] = Light stability of compound A solution with various stabilizers: photolyzed substances by HPLC (Experimental Example 1); format: physicochemical; conditions: compound A drug solution 5 mg/mL, D65 lamp/1000 lux, 24 hours, room temperature
Method: Each sample was stored upside-down under a condition of D65 lamp/1000 lux in a constantly changing room temperature for 24 hours to evaluate the stability by measuring the increased amounts of photolyzed substances. The measurement of photolyzed substances was carried out using HPLC.
Mobile phase (liquid A): 0.1% trifluoroacetic acid aqueous solution/acetonitrile=9:2, (liquid B) acetonitirle, gradient % (capacity) B: 0% (0 to 60 min)/linear 75% (60 to 80 min)/linear 0% (80 to 100 min), column:TSK-gel ODS-80TsQA, 4.6×150 mm, particle diameter 5 μm (produced by Tosoh Corp.), flow rate: 1 mL/min, column temperature: 40° C., detection: UV 270 nm.

cancer proliferation = conditions: reported in Patent Document 1; cited from earlier work
[2] = reported in Patent Document 1; cited from earlier work
[3] = bulk material, reported in Patent Document 2; cited from earlier work
[4] = bulk material, reported in Patent Document 2; cited from earlier work; remark: listed apart in the source

| Compound | Photolyzed Substance Amount (%) [1] [%] | cancer proliferation-inhibitory activity in vivo (cancer proliferation) | toxicity [2] | hygroscopicity [3] | storage stability (humidity, long-term storage) [4] |
| --- | --- | --- | --- | --- | --- |
| COCCn1c2c([n+](Cc3cnccn3)c1C)C(=O)c1ccccc1C2=O [compound A, 1-(2-methoxyethyl)-2-methyl-4,9-dioxo-3-(pyrazin-2-ylmethyl)-4,9-dihydro-1H-naphtho[2,3-d]imidazol-3-ium] | 3.4 | – | – | – | – |
| COCCn1c2c([n+](Cc3cnccn3)c1C)C(=O)c1ccccc1C2=O.[Cl-] [chloride of compound A, 1-(2-methoxyethyl)-2-methyl-4,9-dioxo-3-(pyrazin-2-ylmethyl)-4,9-dihydro-1H-naphtho[2,3-d]imidazol-3-ium chloride] | – | excellent cancer proliferation-inhibitory activity in vivo | low in toxicity | has hygroscopicity | unstable to humidity |
